Key:
Oryctolagus cuniculus = species: Oryctolagus cuniculus; test: Binding affinity to alpha-adrenergic receptor in rabbit jejunum; assay type: tissue-based
[1] = target: Adrenergic receptor alpha; test: Displacement of [3H]clonidine from alpha-adrenergic receptor in rat brain; assay type: tissue-based

SMILES	pD2 (Oryctolagus cuniculus)	Ki [1]
c1ccc2c(c1)CCCC2C1=NCCN1 (stereo not given) [TETRAHYDROZOLINE]	6.5	0.011 µM
c1ccc2c(CC3=NCCN3)cccc2c1	7.1	–
Cc1cc(C(C)(C)C)cc(C)c1CC1=NCCN1	7.1	–
Cc1cc(C(C)(C)C)c(O)c(C)c1CC1=NCCN1	9.8	–

From ChEMBL document CHEMBL3244159, “Ultraviolet photoelectron spectroscopy of cyclic amidines. 1. Electronic structure of some alpha-adrenergic benzylimidazolines” (J Med Chem, 1979)
